Assays:
Assay in all cases: relative viability (nuclei count vs DMSO), 5 days (fraction); higher = more cells survive
[1] = compound: CC1=C(C(=NN1)C)CC2=C(C3=C(S2)N(C(=O)N(C3=O)C)CC(C)C)C(=O)N4C[C@@H](CO4)O + Cc1nc(NC(=O)N2CCC[C@H]2C(N)=O)sc1-c1ccnc(C(C)(C)C(F)(F)F)c1 [Alpelisib] (partner 2 µM)
Outline: (§1)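 Relative viability equals treated-well nuclei counts divided by vehicle-well nuclei counts. Counts came from 4× images of lung cancer cell lines grown in 1536-well plates for 5 days after pin-tool dosing on the day after seeding. Dosing used one drug alone or a fixed anchor-drug dose plus five library-drug doses (not always all listed) in √10 steps, and values are medians of duplicate plates.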

[2] = compound: CC1=C(C(=NN1)C)CC2=C(C3=C(S2)N(C(=O)N(C3=O)C)CC(C)C)C(=O)N4C[C@@H](CO4)O + Cc1nc(Nc2ncc(C(=O)Nc3c(C)cccc3Cl)s2)cc(N2CCN(CCO)CC2)n1 [Dasatinib] (partner 0.075 µM)
Outline: as §1

IDH-C35 + Foretinib = compound: Cc1ccccc1C(C(=O)NC1CCCCC1)N(C(=O)Cn1ccnc1C)c1cccc(F)c1 [IDH-C35] + COc1cc2c(Oc3ccc(NC(=O)C4(C(=O)Nc5ccc(F)cc5)CC4)cc3F)ccnc2cc1OCCCN1CCOCC1 [Foretinib] (partner 0.25 µM)
Outline: as §1

IDH-C35 + Phenformin = compound: Cc1ccccc1C(C(=O)NC1CCCCC1)N(C(=O)Cn1ccnc1C)c1cccc(F)c1 [IDH-C35] + N=C(N)NC(=N)NCCc1ccccc1 [Phenformin] (partner 250 µM)
Outline: as §1

Cell Line | relative viability ([1]; first compound 0.0025 µM) | relative viability ([1]; first compound 0.007906 µM) | relative viability ([1]; first compound 0.025 µM) | relative viability ([1]; first compound 0.07906 µM) | relative viability ([1]; first compound 0.25 µM) | relative viability ([2]; first compound 0.0025 µM) | relative viability ([2]; first compound 0.007906 µM) | relative viability ([2]; first compound 0.025 µM) | relative viability ([2]; first compound 0.07906 µM) | relative viability ([2]; first compound 0.25 µM) | relative viability (IDH-C35 + Foretinib; first compound 0.08 µM) | relative viability (IDH-C35 + Foretinib; first compound 0.253 µM) | relative viability (IDH-C35 + Foretinib; first compound 0.8 µM) | relative viability (IDH-C35 + Foretinib; first compound 2.53 µM) | relative viability (IDH-C35 + Foretinib; first compound 8 µM) | relative viability (IDH-C35 + Phenformin; first compound 0.08 µM) | relative viability (IDH-C35 + Phenformin; first compound 0.253 µM) | relative viability (IDH-C35 + Phenformin; first compound 0.8 µM) | relative viability (IDH-C35 + Phenformin; first compound 2.53 µM) | relative viability (IDH-C35 + Phenformin; first compound 8 µM)
LXF-289 | 1.01 | 1.01 | 1.03 | 1.01 | 1.07 | 0.248 | 0.241 | 0.226 | 0.142 | 0.247 | 0.969 | 0.94 | 1.01 | 1.01 | 0.969 | 0.543 | 0.507 | 0.524 | 0.508 | 0.517
NCI-H23 | 0.823 | 0.767 | 0.666 | 0.634 | 0.892 | 0.926 | 1.05 | 0.82 | 0.725 | 0.964 | 0.912 | 1.03 | 1.1 | 1.04 | 0.846 | 0.824 | 0.746 | 0.788 | 0.756 | 0.705
NCI-H322M | 0.769 | 0.793 | 0.866 | 0.831 | 0.748 | 0.257 | 0.254 | 0.271 | 0.201 | 0.245 | 0.93 | 0.886 | 0.945 | 0.916 | 0.983 | 0.761 | 0.798 | 0.772 | 0.749 | 0.743
NCI-H358 | 0.893 | 0.906 | 0.78 | 0.903 | 1.04 | 0.18 | 0.198 | 0.166 | 0.162 | 0.15 | 0.757 | 0.738 | 0.685 | 0.769 | 0.603 | 0.366 | 0.33 | 0.337 | 0.388 | 0.328
NCI-H441 | 0.83 | 0.602 | 0.616 | 1.06 | 0.902 | 0.65 | 0.59 | 0.679 | 0.411 | 0.583 | 0.863 | 0.753 | 0.948 | 1 | 0.888 | 1.07 | 0.866 | 0.72 | 1.01 | 0.807
NCI-H460 | 0.721 | 0.493 | 0.575 | 0.492 | 0.571 | 0.552 | 0.675 | 0.532 | 0.517 | 0.494 | 1.02 | 1.01 | 1.02 | 0.989 | 0.904 | 0.547 | 0.527 | 0.502 | 0.488 | 0.531
NCI-H520 | 0.835 | 1.04 | 0.612 | 0.536 | 0.836 | 0.231 | 0.194 | 0.161 | 0.154 | 0.179 | 0.788 | 0.749 | 0.821 | 0.72 | 0.654 | 0.588 | 0.665 | 0.652 | 0.525 | 0.699
NCI-H596 | 0.474 | 0.53 | 0.482 | 0.567 | 0.589 | 0.586 | 0.619 | 0.658 | 0.512 | 0.594 | 0.948 | 0.796 | 0.775 |  | 0.763 | 0.781 | 0.819 | 0.705 |  | 0.786
NCI-H647 | 1.16 | 1.03 | 1.19 | 1.32 | 1.75 | 0.408 | 0.241 | 0.194 | 0.112 | 0.15 | 1.36 | 1.13 | 1.28 | 1.17 | 1.02 | 0.425 | 0.446 | 0.626 | 0.55 | 0.491
NCI-H650 | 1.28 | 1.11 | 0.972 | 1 | 1.18 | 0.493 | 0.548 | 0.365 | 0.514 | 0.443 | 1.03 | 1.04 | 1.05 |  | 0.981 | 0.453 | 0.465 | 0.505 |  | 0.421
NCI-H661 | 0.914 | 0.803 | 0.559 | 0.654 | 0.421 | 0.907 | 0.833 | 0.906 | 0.881 | 0.872 | 1.03 | 0.964 | 0.981 | 0.988 | 1.03 | 0.305 | 0.275 | 0.307 | 0.28 | 0.266
NCI-H727 | 0.535 | 0.512 | 0.731 | 0.55 | 0.666 | 0.293 | 0.416 | 0.501 | 0.292 | 0.396 | 0.87 | 0.693 | 1.07 | 0.832 | 0.764 | 0.471 | 0.525 | 0.509 | 0.493 | 0.579
NCI-H838 | 1.05 | 1.05 | 0.989 | 0.967 | 0.974 | 0.347 | 0.322 | 0.276 | 0.197 | 0.304 | 1.07 | 0.991 | 0.95 | 0.998 | 1.03 | 0.729 | 0.599 | 0.502 | 0.659 | 0.543
NCI-H1355 | 0.937 | 0.887 | 0.878 | 0.893 | 0.74 | 0.759 | 0.701 | 0.783 | 0.689 | 0.685 | 1.04 | 1.02 | 0.935 | 0.982 | 1 | 0.52 | 0.438 | 0.424 | 0.466 | 0.395
NCI-H1395 | 1.04 | 0.898 | 1.06 | 0.983 | 1.01 | 0.412 | 0.412 | 0.352 | 0.32 | 0.335 | 0.972 | 0.976 | 1.07 | 0.896 | 0.971 | 0.45 | 0.477 | 0.498 | 0.396 | 0.44
NCI-H1437 | 0.993 | 1 | 0.946 | 0.972 | 1.06 | 0.393 | 0.409 | 0.314 | 0.488 | 0.434 | 1.29 | 1.28 | 1.25 | 1.29 | 1.23 | 0.334 | 0.288 | 0.336 | 0.322 | 0.274

— the supplement of paper PMC10307832
